Patent US20070010484A1, “Method for treating or inhibiting the effects of injuries or diseases that result in neuronal degeneration and method for promoting neurogenesis” (YEDA RESEARCH AND DEVELOPMENT CO. LTD., priority 2003, published 2007)

System: retinal ganglion cells (RGCs)
Protocol: Glutamate-induced toxicity: C57Bl/6J mice were anesthetized by intraperitoneal (i.p.) injection of ketamine (80 mg/kg; Fort Dodge Laboratories, Fort Dodge, Iowa) and xylazine (16 mg/kg; Vitamed, Israel). Their right eyes were punctured with a 27 gauge needle in the upper part of the sclera and a hamilton syringe with a 30-gauge needle was inserted as far as the vitreal body. Each mouse was injected with a total volume of 1 μl saline containing L-glutamate (100 nmol). Mice in one group were also injected intravenously (i.v.) with 5 μg of CSPG-DSs in 200 μl saline (Schori, 2001).
Labeling of retinal ganglion cells: Mice were anesthetized as described above and placed in a stereotactic device. The skull was exposed and the bregma identified and marked. […] A window was drilled in the scalp above the designated coordinates in the right and left hemispheres. […]
Assessment of retinal ganglion cell survival: Retinas were examined for labeled retinal ganglion cells (RGCs) by fluorescence microscopy. Labeled cells from four to six fields of identical size (0.076 mm^2) were counted. […] Cells were counted under the fluorescence microscope (magnification ×800) by observers blinded to the treatment received by the mice. The average number of RGCs per field was calculated for each retina. The number of RGCs in the contralateral (uninjured) eye was also counted and served as an internal control.

CC(=O)N[C@H]1C(O)O[C@H](COS(=O)(=O)O)[C@H](O)[C@@H]1O[C@@H]1OC(C(=O)O)=C[C@H](O)[C@H]1O (stereo partly drawn) [CSPG-DS, 2-acetoamido-2-deoxy-3-O-(β-D-gluco-4-enepyranosyluronic acid)-6-O-sulfo-D-galactose]
neuronal survival in the absence of glutamate (intravitreal injection of CSPG-DSs, no glutamate): no effect
number of surviving RGCs per mm2 (mice, intravitreal toxic glutamate, single i.v. injection of sulfated CSPG-DSs (5 μg), assessed 1 week later, mean±SEM): 1965±166 per mm2
